From patent US20240415819A1, “MACROCYCLIC COMPOUNDS AS PROTEASOME SUBUNIT BETA TYPE-5 INHIBITORS” (Lead Discovery Center GmbH, priority 2021, published 2024)
Where two headings read alike, the source gives them in different places.

Tests used:
[1] = test system: A549 (human lung carcinoma cell line); assay: Glo assay of A549 cells (Table 3; ProteasomeGlo plating scheme); assay type: cell-based; details: Homo sapiens
Method in brief: (§1)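 Cells plated in 384 wells; compound, DMSO, staurosporine transferred by ECHO; 105 min, 37° C., 5% CO2; Proteasome-Glo (Suc-LLVY-Glo) reagent added; dark 10-15 min; luminescence; IC50 nM.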

[2] = test system: Karpas cells; assay: Glo assay of Karpas cells (Table 3; ProteasomeGlo plating scheme); assay type: cell-based; details: read-out: Pglo Karpas
Method in brief: as §1

[3] = test system: B-cells isolated from PBMC's; assay: Chymotrypsin-like ProteasomeGlo assay in B-cells isolated from PBMCs; assay type: cell-based, human; details: Homo sapiens; B-cells isolated from PBMC's; read-out: Pglo B-Cell
Method in brief: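 Human B-cells were negatively isolated from buffy-coat PBMCs by density gradient, RBC lysis and Miltenyi magnetic separation. Cells were plated and compounds added by acoustic transfer after 1:100 dilution, with DMSO controls and medium-only wells. Chymotrypsin-like proteasome activity was read by luminescent ProteasomeGlo to derive IC50.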

[4] = A549 cells, read-out: PGLo A549

| SMILES | IC50 [1, 4] | IC50 [2] | IC50 [3] | IC50 ([1]; A549, read-out: PGLo A549 [nM]) |
| --- | --- | --- | --- | --- |
| Cc1ccc2cc1CNC(=O)[C@H](CCc1ccccc1)NC(=O)[C@H](NC(=O)OCc1ccccc1)CC(=O)N1CCC[C@H](CCO2)C1 [Compound 291, benzyl ((13R,9S,12R)-5^4-methyl-8,11,14-trioxo-9-phenethyl-4-oxa-7,10-diaza-1(3,1)-piperidina-5(1,3)-benzenacyclotetradecaphane-12-yl)carbamate] | 1000 to 5000 nM |  |  |  |
| Cc1ccc2cc1CNC(=O)[C@H](CCc1ccccc1)NC(=O)[C@@H](NC(=O)OCC1(C)COC1)CC(=O)N1CCCC(CCO2)C1 (stereo partly drawn) [Compound 293, (3-methyloxetan-3-yl)methyl ((9S,12S)-5^4-methyl-8,11,14-trioxo-9-phenethyl-4-oxa-7,10-diaza-1(3,1)-piperidina-5(1,3)-benzenacyclotetradecaphane-12-yl)carbamate] |  |  |  | < 100 nM |

Now from value to compound, other results behind:

| IC50 [1, 4] | IC50 [2] | SMILES | IC50 [3] | IC50 ([1]; A549, read-out: PGLo A549 [nM]) |
| --- | --- | --- | --- | --- |
| < 100 nM |  | CC(=O)N[C@H]1CC(=O)N2CCCC(CCOc3ccc(C)c(c3)CNC(=O)C(c3cnn(Cc4ccccc4)c3)NC1=O)C2 (stereo partly drawn) [Compound 565, N-((12S)-9-(1-benzyl-1H-pyrazol-4-yl)-5^4-methyl-8,11,14-trioxo-4-oxa-7,10-diaza-1(3,1)-piperidina-5(1,3)-benzenacyclotetradecaphane-12-yl)acetamide] |  |  |
| < 100 nM | < 100 nM | CCC(C(=O)N[C@H]1CC(=O)N2CCCC(CCOc3ccc(C)c(c3)CNC(=O)[C@H](CCc3ccccc3)NC1=O)C2)c1ccc(OC)c(OC)c1 (stereo partly drawn) [Compound 64, 2-(3,4-dimethoxyphenyl)-N-((9S,12S)-5^4-methyl-8,11,14-trioxo-9-phenethyl-4-oxa-7,10-diaza-1(3,1)-piperidina-5(1,3)-benzenacyclotetradecaphane-12-yl)butanamide] | < 100 nM |  |
| < 100 nM |  | Cc1ccc2cc1CNC(=O)[C@H](CCc1ccccc1)NC(=O)[C@@H](NC(=O)OCc1ccccc1)CC(=O)N1CCC[C@H](CCO2)C1 [Compound 292, benzyl ((13R,9S,12S)-5^4-methyl-8,11,14-trioxo-9-phenethyl-4-oxa-7,10-diaza-1(3,1)-piperidina-5(1,3)-benzenacyclotetradecaphane-12-yl)carbamate] |  |  |
